Results as given in ChEMBL document CHEMBL4334552, “Discovery of BMS-986260, a Potent, Selective, and Orally Bioavailable TGFβR1 Inhibitor as an Immuno-oncology Agent” (ACS Med Chem Lett, 2020).
Values after ≈ are worked out from the molar mass of the structure shown.

How the values were obtained:
[1] = Metabolic stability of compound in rat liver microsomes assessed as compound remaining after 10 mins; type: ADME, Microsome; settings: read-out: Stability
TGF-beta receptor type-2 = TGF-beta receptor type-2 (Homo sapiens, UniProt P37173); test: Inhibition of wild type His-tagged TGFBR2 kinase domain (unknown origin) incubated for 1 hr by HTRF analysis
Sequence of TGF-beta receptor type-2 (P37173 whole entry, the tested form may be a part): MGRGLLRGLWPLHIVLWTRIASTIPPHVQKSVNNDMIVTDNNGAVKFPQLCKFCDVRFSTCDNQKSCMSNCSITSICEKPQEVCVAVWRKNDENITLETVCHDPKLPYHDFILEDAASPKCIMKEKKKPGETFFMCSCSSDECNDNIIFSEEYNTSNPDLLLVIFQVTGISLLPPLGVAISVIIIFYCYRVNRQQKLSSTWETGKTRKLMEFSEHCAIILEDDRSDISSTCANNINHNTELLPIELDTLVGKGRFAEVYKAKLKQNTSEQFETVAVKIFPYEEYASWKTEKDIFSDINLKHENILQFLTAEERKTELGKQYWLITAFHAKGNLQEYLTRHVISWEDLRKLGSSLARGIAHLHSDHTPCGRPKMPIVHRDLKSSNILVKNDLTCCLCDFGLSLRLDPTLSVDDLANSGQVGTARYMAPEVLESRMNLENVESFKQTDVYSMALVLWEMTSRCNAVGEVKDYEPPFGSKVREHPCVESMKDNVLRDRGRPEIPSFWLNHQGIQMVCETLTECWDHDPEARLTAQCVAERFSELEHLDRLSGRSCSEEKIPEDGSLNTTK

[2] = Solubility of compound in crystalline form at pH 6.5; type: physicochemical
[3] = Metabolic stability of compound in mouse liver microsomes assessed as compound remaining; type: ADME, Microsome
[4] = Metabolic stability of compound in human liver microsomes assessed as compound remaining; type: ADME, Microsome
TGF-beta receptor type-1 [5] = target: TGF-beta receptor type-1 (Homo sapiens, UniProt P36897, T204D); test: Inhibition of His-tagged TGFBR1 kinase domain T204D mutant (unknown origin) incubated for 1 hr by HTRF analysis
Sequence of TGF-beta receptor type-1 (Homo sapiens, UniProt P36897, T204D) (P36897 34-503 T204D limits assumed): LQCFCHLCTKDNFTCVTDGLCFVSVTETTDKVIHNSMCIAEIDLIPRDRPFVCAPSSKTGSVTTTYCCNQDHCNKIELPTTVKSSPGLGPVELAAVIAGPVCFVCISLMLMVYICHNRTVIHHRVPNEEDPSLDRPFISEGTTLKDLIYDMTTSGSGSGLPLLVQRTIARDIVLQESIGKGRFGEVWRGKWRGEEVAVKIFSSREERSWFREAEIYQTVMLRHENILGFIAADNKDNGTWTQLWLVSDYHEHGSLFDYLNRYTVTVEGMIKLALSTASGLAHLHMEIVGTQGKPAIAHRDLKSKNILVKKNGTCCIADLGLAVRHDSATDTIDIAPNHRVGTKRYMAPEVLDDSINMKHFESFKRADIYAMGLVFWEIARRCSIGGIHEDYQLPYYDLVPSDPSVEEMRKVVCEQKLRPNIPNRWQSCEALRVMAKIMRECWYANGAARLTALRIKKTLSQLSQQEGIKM

TGF-beta receptor type-1 [6] = target: T1, TGF-beta receptor type-1 (Homo sapiens, UniProt P36897); test: Inhibition of TGFBR1 in TGFbeta-stimulated human NHLF cells assessed as reduction in SMAD2 nuclear translocation
T1 sequence (P36897 whole entry): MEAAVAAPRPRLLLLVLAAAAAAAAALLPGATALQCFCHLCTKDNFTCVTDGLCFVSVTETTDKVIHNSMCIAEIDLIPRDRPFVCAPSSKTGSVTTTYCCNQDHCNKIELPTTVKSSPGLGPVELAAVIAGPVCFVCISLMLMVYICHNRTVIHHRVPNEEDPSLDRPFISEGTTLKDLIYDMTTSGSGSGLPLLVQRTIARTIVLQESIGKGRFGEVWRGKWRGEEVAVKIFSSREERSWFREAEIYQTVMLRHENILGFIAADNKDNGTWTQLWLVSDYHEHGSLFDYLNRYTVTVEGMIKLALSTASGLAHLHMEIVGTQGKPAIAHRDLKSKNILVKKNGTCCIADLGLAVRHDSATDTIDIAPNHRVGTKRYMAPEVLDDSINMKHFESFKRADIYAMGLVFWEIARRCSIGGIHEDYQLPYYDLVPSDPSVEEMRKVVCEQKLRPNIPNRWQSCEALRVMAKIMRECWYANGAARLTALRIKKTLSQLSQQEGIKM

[7] = Aqueous solubility of the compound at pH 6.5; type: physicochemical; settings: buffer
[8] = AUC (0 to 24 hrs) in mouse at 10 mg/kg, po; type: ADME, organism-based; set-up: dose 10 mg/kg, time < 24 hr, route oral; settings: in vivo

remaining at 10 min [1] [%]	IC50 (TGF-beta receptor type-2) [nM]	solubility [2] [µg/mL]	Stability [3] [%]	Stability [4] [%]	IC50 (TGF-beta receptor type-1 [5]) [nM]	IC50 (TGF-beta receptor type-1 [6]) [nM]	solubility [7]	AUC(0-t) at 24 h [8] [µM·h]	Structure (SMILES)
100	> 15000	138 (≈ 396 µM)	86	93	–	–	–	–	N#Cc1cnc2ccc(-c3c(-c4ccc(F)cc4)ncn3CCO)nn12
31	–	–	54	78	1 to 10	90	–	–	Cc1cccc(-c2ncn(CC(F)F)c2-c2ccc3nccn3c2)n1
96	> 15000	–	89	75	–	–	Insoluble	–	N#Cc1cnc2ccc(-c3c(-c4ccc(F)cc4)ncn3CC(F)F)nn12
100	–	–	100	100	–	–	–	28	NC(=O)c1cnc2ccc(-c3c(-c4ccc(F)cc4)ncn3CC(F)F)nn12
74	–	–	65	97	–	–	–	2	Cc1cccc(-c2ncn(CC(F)F)c2-c2ccc3ncc(C(N)=O)n3c2)n1
